Where two headings read alike, the source gives them in different places.
Target: T1, apelin receptor (APJ) (Homo sapiens, UniProt P35414)
T1 sequence (P35414 1-380): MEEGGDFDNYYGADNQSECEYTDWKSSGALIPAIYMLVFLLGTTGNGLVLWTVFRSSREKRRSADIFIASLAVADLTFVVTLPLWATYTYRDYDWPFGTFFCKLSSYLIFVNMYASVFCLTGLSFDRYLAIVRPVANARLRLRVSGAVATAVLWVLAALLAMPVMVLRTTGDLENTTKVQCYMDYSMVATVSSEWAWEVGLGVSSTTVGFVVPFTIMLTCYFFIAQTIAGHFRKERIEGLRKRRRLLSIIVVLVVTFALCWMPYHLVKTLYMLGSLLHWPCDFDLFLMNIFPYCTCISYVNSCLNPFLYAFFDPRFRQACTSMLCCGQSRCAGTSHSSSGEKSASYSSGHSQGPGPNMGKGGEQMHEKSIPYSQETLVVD
Assay: in vitro apelin agonist activity (methods of Giddings et al., Apelin-13 as positive control)
Assay type: cell-based
Excerpt: The compounds above were studied for their in vitro activity as apelin agonists using the methods described by Giddings et al. Giddings et al., 2010 Int J High Thro Screen. 1:39-47, the contents of which are hereby incorporated by reference in its entirety.

[1] = apelin agonist activity, Giddings et al. method, read-out: agonist activity (EC50)

| SMILES | EC50 [1] [µM] | other results |
| --- | --- | --- |
| COc1cccc(OC)c1-c1cc(C(=O)N[C@@H](CC(C)C)C(=O)O)nn1-c1ccc(F)cc1 [compound 34] | – | EC50: < 10 µM |
| COC(=O)CNC(=O)C[C@H](CC(C)C)NC(=O)c1cc(-c2c(OC)cccc2OC)n(CC(C)C)n1 [compound 130, (S)-Methyl 2-(3-(5-(2,6-dimethoxyphenyl)-1-isobutyl-1H-pyrazole-3-carboxamido)-5-methylhexanamido)acetate] | < 10 | – |
| COC(=O)CNC(=O)C[C@H](CC(C)C)NC(=O)c1cc(-c2c(OC)cccc2OC)n(C2CCCCC2)n1 [compound 103, (S)-Methyl 2-(3-(1-cyclohexyl-5-(2,6-dimethoxyphenyl)-1H-pyrazole-3-carboxamido)-5-methylhexanamido)acetate] | < 10 | – |
| COC(=O)CNC(=O)C[C@H](CC(C)C)N(C)C(=O)c1cc(-c2c(OC)cccc2OC)n(CC(C)C)n1 [compound 238] | < 10 | – |
| COc1cccc(OC)c1-c1cc(C(=O)N[C@H](CC(=O)NCC(N)=O)CC(C)C)nn1CC(C)C [compound 175] | < 10 | – |
| COc1cccc(OC)c1-c1cc(C(=O)N[C@H](CC(=O)NCc2ncco2)CC(C)C)nn1CC(C)C [compound 140, (S)-5-(2,6-Dimethoxyphenyl)-1-isobutyl-N-(5-methyl-1-((oxazol-2-ylmethyl)amino)-1-oxohexan-3-yl)-1H-pyrazole-3-carboxamide] | < 10 | – |
| COC(=O)CNC(=O)[C@H](CC1CCCCC1)NC(=O)c1cc(-c2c(OC)cccc2OC)n(CC(C)C)n1 [compound 198] | < 10 | EC50 (mean based on three runs, read-out: mean activity (EC50)): 0.053 µM |
| COc1cccc(OC)c1-c1cc(C(=O)N[C@H](CC(=O)NC(C)C)CC(C)C)nn1CC(C)C [compound 162] | < 10 | – |
| COC(=O)CNC(=O)[C@H](Cc1ccccc1)NC(=O)c1cc(-c2c(OC)cccc2OC)n(CC(C)C)n1 [compound 205] | < 10 | – |
| COc1cccc(OC)c1-c1cc(C(=O)N[C@@H](CCC2CCCCC2)Cc2nnn[nH]2)nn1CC(C)C [compound 265] | < 10 | – |
| COc1cccc(OC)c1-c1cc(C(=O)N[C@H](CC(=O)O)CC(C)C)nn1-c1ccc(F)cc1 [compound 56, (S)-3-(5-(2,6-Dimethoxyphenyl)-1-(4-fluorophenyl)-1H-pyrazole-3-carboxamido)-5-methylhexanoic acid] | < 10 | – |
| COc1cccc(OC)c1-c1cc(C(=O)N[C@H](CC(=O)NCC2CCCCC2)CC(C)C)nn1CC(C)C [compound 155, (S)—N-(1-((Cyclohexylmethyl)amino)-5-methyl-1-oxohexan-3-yl)-5-(2,6-dimethoxyphenyl)-1-isobutyl-1H-pyrazole-3-carboxamide] | < 10 | – |
| COC(=O)CNC(=O)C[C@H](CC(C)C)NC(=O)c1cc(-c2c(OC)cccc2OC)n(CC2CC2)n1 [compound 183] | < 10 | – |
| COC(=O)CNC(=O)[C@H](CC(C)C)NC(=O)c1cc(-c2c(OC)cccc2OC)n(CC(C)C)n1 [compound 188] | < 10 | – |
| COc1cccc(OC)c1-c1cc(C(=O)N[C@H](CC(=O)NCCO)CC(C)C)nn1CC(C)C [compound 142, (S)-5-(2,6-Dimethoxyphenyl)-N-(1-((2-hydroxyethyl)amino)-5-methyl-1-oxohexan-3-yl)-1-isobutyl-1H-pyrazole-3-carboxamide] | < 10 | – |
| CCCCNC(=O)C[C@H](CC(C)C)NC(=O)c1cc(-c2c(OC)c(F)cc(F)c2OC)n(CC(C)C)n1 [compound 168] | < 10 | – |
| CCCCNC(=O)C[C@@H](CC(C)C)NC(=O)c1cc(-c2c(OC)cccc2OC)n(CC(C)C)n1 [compound 153] | < 10 | – |
| COC(=O)CNC(=O)[C@H](CC1CCCCC1)NC(=O)c1cc(-c2cc(OC)ccc2OC)n(CC(C)C)n1 [compound 217] | < 10 | – |
| COc1cccc(OC)c1-c1cc(C(=O)N[C@H](C(=O)O)C2CCCCC2)nn1-c1ccc(F)cc1 [compound 71, (S)-2-Cyclohexyl-2-(5-(2,6-dimethoxyphenyl)-1-(4-fluorophenyl)-1H-pyrazole-3-carboxamido)acetic acid] | < 10 | – |
| COc1cccc(OC)c1-c1cc(C(=O)N[C@H](CC(=O)O)CC(C)C)nn1C1CCCC1 [compound 182] | < 10 | – |
| COCCNC(=O)C[C@H](CCN1CCCCC1)NC(=O)c1cc(-c2c(OC)cccc2OC)n(CC(C)C)n1 [compound 249] | < 10 | – |
| COC(=O)CN(C)C(=O)[C@H](CC(C)C)NC(=O)c1cc(-c2c(OC)cccc2OC)n(CC(C)C)n1 [compound 219] | < 10 | – |

Now from value to compound, other results behind:

| EC50 [1] [µM] | SMILES | other results |
| --- | --- | --- |
| < 10 | COC(=O)CNC(=O)[C@H](CC(C)C)NC(=O)c1cc(-c2c(OC)cccc2OC)n(C2CCCCC2)n1 [compound 189] | – |
| < 10 | COc1cccc(OCc2ccccc2)c1-c1cc(C(=O)N[C@H](CC(=O)NCC(=O)O)CC(C)C)nn1C1CCCCC1 [compound 129, 2-((3S)-3-(5-(2-(Benzyloxy)-6-methoxyphenyl)-1-cyclohexyl-1H-pyrazole-3-carboxamido)-5-methylhexanamido)acetic acid] | – |
| < 10 | CCCN(C)C(=O)C[C@H](CC(C)C)NC(=O)c1cc(-c2c(OC)cccc2OC)n(CC(C)C)n1 [compound 171] | – |
| < 10 | COc1cccc(OCc2ccccc2)c1-c1cc(C(=O)N[C@H](CC(=O)NCC(=O)N(C)C)CC(C)C)nn1C1CCCCC1 [compound 136, 5-(2-(Benzyloxy)-6-methoxyphenyl)-1-cyclohexyl-N-((S)-1-((2-(dimethylamino)-2-oxoethyl)amino)-5-methyl-1-oxohexan-3-yl)-1H-pyrazole-3-carboxamide] | – |
| < 10 | COc1cccc(OC)c1-c1cc(C(=O)N[C@@H](CCN2CCCCC2)CC(=O)O)nn1CC(C)C [compound 251] | – |
| < 10 | CCOC(=O)CCNC(=O)C[C@H](CC(C)C)NC(=O)c1cc(-c2c(OC)cccc2OCc2ccccc2)n(C2CCCCC2)n1 [compound 138, Ethyl 3-((3S)-3-(5-(2-(benzyloxy)-6-methoxyphenyl)-1-cyclohexyl-1H-pyrazole-3-carboxamido)-5-methylhexanamido)propanoate] | – |
| < 10 | CCCn1nc(C(=O)N[C@H](CC(=O)NCC(=O)OC)CC(C)C)cc1-c1c(OC)cccc1OC [compound 186] | – |
| < 10 | COC(=O)CNC(=O)C[C@H](CCCC1CCCCC1)NC(=O)c1cc(-c2c(OC)cccc2OC)n(CC(C)C)n1 [compound 242] | – |
| < 10 | COc1cccc(OC)c1-c1cc(C(=O)N[C@@H](CCN2CCCCC2)CC(=O)NC2CCC2)nn1CC(C)C [compound 247] | – |
| < 10 | COc1cccc(OC)c1-c1cc(C(=O)N[C@@H](CCc2ccccc2)C(=O)N2CCCC2)nn1CC(C)C [compound 226] | – |
| < 10 | COc1cccc(OCc2ccccc2)c1-c1cc(C(=O)N[C@H](CC(=O)O)CC(C)C)nn1-c1ccc(F)cc1 [compound 82, (3S)-3-(5-(2-(Benzyloxy)-6-methoxyphenyl)-1-(4-fluorophenyl)-1H-pyrazole-3-carboxamido)-5-methylhexanoic acid] | – |
| < 10 | COc1cccc(OC)c1-c1cc(C(=O)N[C@H](CC(=O)NCC(=O)O)CC(C)C)nn1-c1ccc(F)cc1 [compound 77, (S)-2-(3-(5-(2,6-Dimethoxyphenyl)-1-(4-fluorophenyl)-1H-pyrazole-3-carboxamido)-5-methylhexanamido)acetic acid] | – |
| < 10 | COc1cccc(OC)c1-c1cc(C(=O)N[C@H](CC(=O)O)CC(C)C)nn1CC(C)C [compound 118] | – |
| < 10 | CCCC[C@H](NC(=O)c1cc(-c2c(OC)cccc2OC)n(CC(C)C)n1)C(=O)NCC(=O)OC [compound 212] | – |

Reference: patent publication US10377718B2, “Apelin receptor (APJ) agonists and uses thereof” (Research Triangle Institute, priority 2014, dated 2019)
